Measured values from patent US12447153B2, “HER2 mutation inhibitors” (Array BioPharma Inc., priority 2021, dated 2025).

Key:
EGFR = EGFR (Homo sapiens (Human), UniProt P00533); test: ErbB Enzyme Assay (HTRF KinEASE-TK), Assay 3; assay type: biochemical
EGFR wild type (EGFR WT) = EGFR wild type (EGFR WT) (Homo sapiens (Human), UniProt P00533); test: Cellular Phosphorylation Assay, Assay 5 (EGF-stimulated EGFR phosphorylation, NIH 3T3 cells); assay type: cell-based
ErbB2 WT = ErbB2 WT (Homo sapiens (Human), UniProt P04626); test: ErbB Enzyme Assay (HTRF KinEASE-TK), Assay 2; assay type: biochemical
ErbB2 WT, sequence (P04626 23-1255): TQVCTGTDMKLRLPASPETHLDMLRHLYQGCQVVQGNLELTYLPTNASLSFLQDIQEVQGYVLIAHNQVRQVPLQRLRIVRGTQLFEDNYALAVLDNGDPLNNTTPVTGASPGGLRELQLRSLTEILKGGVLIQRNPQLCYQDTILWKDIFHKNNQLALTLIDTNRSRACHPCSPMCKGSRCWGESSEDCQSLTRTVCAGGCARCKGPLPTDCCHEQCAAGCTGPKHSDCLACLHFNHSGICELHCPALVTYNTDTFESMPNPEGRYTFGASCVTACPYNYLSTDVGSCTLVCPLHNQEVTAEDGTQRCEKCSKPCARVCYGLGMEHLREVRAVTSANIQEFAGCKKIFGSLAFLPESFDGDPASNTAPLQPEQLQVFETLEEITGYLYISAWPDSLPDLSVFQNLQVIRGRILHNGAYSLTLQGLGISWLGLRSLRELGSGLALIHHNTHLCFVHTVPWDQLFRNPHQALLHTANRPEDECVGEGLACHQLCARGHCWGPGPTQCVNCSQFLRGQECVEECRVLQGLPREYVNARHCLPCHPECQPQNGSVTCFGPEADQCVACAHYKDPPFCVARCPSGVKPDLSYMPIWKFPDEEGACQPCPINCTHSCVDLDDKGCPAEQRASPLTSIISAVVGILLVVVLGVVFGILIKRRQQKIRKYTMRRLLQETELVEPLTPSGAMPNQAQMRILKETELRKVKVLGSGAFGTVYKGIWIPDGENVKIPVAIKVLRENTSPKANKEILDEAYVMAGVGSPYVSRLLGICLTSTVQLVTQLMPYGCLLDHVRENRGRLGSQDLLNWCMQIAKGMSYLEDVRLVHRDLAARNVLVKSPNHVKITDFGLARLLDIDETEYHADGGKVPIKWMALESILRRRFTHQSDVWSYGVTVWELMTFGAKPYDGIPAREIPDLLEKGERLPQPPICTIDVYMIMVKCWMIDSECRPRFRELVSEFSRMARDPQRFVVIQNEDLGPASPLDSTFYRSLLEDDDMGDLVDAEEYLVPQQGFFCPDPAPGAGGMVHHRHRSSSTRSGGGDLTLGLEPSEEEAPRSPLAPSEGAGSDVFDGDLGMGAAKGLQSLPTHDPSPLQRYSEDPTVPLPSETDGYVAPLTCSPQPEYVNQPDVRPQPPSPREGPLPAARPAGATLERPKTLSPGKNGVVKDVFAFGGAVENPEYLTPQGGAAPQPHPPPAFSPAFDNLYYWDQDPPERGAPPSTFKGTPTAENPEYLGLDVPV

[1] = biological target: ErbB2 with Exon 20 YVMA insertion (HER2-YVMA) (Homo sapiens (Human), UniProt P04626, INS775YVMA); test: Cellular Phosphorylation Assay, Assay 4 (constitutive ErbB2 phosphorylation, NIH 3T3 cells); assay type: cell-based
ErbB2 with Exon 20 YVMA insertion (HER2-YVMA), sequence (P04626 other isoform, or with tags, fused parts or gaps ins YVMA behind 775): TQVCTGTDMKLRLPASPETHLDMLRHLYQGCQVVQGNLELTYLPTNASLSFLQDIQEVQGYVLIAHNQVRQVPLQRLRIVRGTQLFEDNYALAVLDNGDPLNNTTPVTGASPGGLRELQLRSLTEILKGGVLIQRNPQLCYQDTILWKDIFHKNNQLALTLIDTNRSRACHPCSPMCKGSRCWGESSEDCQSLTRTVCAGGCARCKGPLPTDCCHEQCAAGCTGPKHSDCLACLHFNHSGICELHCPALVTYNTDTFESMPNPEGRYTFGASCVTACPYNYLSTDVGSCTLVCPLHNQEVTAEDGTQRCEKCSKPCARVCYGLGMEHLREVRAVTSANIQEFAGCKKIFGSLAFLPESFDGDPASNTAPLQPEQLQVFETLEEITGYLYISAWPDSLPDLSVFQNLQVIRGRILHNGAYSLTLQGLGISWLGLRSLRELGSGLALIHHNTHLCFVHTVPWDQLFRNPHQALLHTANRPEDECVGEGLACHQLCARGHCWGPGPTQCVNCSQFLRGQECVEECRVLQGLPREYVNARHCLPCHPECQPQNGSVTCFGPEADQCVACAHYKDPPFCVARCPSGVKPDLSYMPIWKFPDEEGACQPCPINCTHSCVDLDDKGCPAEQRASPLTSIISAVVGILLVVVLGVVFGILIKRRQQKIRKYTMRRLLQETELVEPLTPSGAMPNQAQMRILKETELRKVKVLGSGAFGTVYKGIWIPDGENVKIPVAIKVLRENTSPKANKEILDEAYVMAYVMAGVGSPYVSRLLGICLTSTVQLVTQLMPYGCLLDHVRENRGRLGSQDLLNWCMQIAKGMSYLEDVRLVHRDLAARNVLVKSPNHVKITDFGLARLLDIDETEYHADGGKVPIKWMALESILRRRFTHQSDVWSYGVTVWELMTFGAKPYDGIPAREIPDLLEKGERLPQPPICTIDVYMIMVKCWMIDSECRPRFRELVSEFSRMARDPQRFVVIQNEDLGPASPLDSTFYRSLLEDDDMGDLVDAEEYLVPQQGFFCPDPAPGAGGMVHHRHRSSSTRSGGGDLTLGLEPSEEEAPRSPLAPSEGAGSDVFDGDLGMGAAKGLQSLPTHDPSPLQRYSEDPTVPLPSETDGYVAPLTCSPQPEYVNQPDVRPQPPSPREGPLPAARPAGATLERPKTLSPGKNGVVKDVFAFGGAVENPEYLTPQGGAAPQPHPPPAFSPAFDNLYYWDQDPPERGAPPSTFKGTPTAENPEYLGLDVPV

[2] = EGF-stimulated EGFR WT phosphorylation
[3] = cellular EGFR WT phosphorylation, EGF-stimulated
[4] = cellular ErbB2 YVMA phosphorylation

EGFR, sequence (P00533 25-1210): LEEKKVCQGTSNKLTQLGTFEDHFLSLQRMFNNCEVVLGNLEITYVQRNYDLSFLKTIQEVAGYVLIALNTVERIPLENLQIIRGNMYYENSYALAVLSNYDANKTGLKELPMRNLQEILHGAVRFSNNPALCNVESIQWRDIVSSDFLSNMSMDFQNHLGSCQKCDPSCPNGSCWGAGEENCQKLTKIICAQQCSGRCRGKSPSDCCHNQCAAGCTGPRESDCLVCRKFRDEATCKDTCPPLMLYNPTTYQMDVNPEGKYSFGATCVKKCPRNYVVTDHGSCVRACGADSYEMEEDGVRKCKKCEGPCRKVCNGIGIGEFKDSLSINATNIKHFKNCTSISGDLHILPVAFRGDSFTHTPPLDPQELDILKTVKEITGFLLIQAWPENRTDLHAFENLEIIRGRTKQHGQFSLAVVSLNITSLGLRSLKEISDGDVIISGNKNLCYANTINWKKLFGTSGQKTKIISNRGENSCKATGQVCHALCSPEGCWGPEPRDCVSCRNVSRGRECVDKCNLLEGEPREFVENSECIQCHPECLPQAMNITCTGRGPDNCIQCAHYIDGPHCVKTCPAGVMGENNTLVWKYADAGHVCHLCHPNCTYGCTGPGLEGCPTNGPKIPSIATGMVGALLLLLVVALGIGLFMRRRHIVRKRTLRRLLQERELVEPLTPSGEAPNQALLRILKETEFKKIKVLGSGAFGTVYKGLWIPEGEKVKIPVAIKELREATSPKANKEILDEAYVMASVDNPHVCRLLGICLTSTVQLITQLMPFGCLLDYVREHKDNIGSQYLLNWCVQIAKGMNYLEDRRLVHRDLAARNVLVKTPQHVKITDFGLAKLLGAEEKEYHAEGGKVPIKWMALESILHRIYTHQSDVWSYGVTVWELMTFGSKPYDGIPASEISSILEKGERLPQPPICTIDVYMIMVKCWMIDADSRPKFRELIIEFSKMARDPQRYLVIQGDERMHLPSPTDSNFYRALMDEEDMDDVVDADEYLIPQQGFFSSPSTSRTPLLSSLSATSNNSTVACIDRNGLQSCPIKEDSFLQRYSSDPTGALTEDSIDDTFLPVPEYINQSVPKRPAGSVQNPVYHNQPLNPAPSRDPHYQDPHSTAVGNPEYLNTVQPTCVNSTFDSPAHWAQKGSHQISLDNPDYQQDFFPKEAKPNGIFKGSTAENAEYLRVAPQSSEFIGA
EGFR wild type (EGFR WT), sequence (P00533 25-1210): as above

IC50 (EGFR; EGFR enzyme) | IC50 (EGFR wild type (EGFR WT); [2]) | IC50 (ErbB2 WT; ErbB2 WT enzyme) | IC50 ([1]; ErbB2 YVMA phosphorylation) | IC50 (EGFR; EGFR enzyme assay) | IC50 (EGFR wild type (EGFR WT); [3]) | IC50 (ErbB2 WT; ErbB2 WT enzyme assay) | IC50 [1, 4] | SMILES
≥ 10000 nM | ≥ 5000 nM | 461 nM | 15.4 nM |  |  |  |  | C=CC(=O)N1C[C@@H]2C[C@H]1CN(c1ccc3ncnc(Nc4cc(C)c(Oc5ccc6c(c5)ncn6C)cc4F)c3n1)C2 [Example 102, 1-((1R,5S)-3-(4-((2-fluoro-5-methyl-4-((1-methyl-1H-benzo[d]imidazol-5-yl)oxy)phenyl)amino)pyrido[3,2-d]pyrimidin-6-yl)-3,6-diazabicyclo[3.2.1]octan-6-yl)prop-2-en-1-one]
333 nM | 639 nM | 15.3 nM | 28.1 nM |  |  |  |  | C=CC(=O)N1CCC(Sc2ccc3ncnc(Nc4ccc(Oc5ccn6ncnc6c5)c(Cl)c4F)c3n2)CC1 [Example 62, 1-(4-((4-((4-([1,2,4]triazolo[1,5-a]pyridin-7-yloxy)-3-chloro-2-fluorophenyl)amino)pyrido[3,2-d]pyrimidin-6-yl)thio)piperidin-1-yl)prop-2-en-1-one]
 |  |  |  | 3670 nM | ≥ 5000 nM | 120 nM | 82.7 nM | C=CC(=O)N1C[C@H]2CC[C@H](c3ccc4ncnc(Nc5cc(C)c(Oc6ccn7ncnc7c6)cc5F)c4n3)[C@H]2C1 [Example 410]
30 nM | 45.4 nM | 2.3 nM | 5.7 nM |  |  |  |  | C=CC(=O)N1CCN(c2ccc3ncnc(Nc4ccc(Oc5ccn6ncnc6c5)c(Cl)c4F)c3n2)C[C@@H]1C(F)(F)F [Example 86, (R)-1-(4-(4-((4-([1,2,4]triazolo[1,5-a]pyridin-7-yloxy)-3-chloro-2-fluorophenyl)amino)pyrido[3,2-d]pyrimidin-6-yl)-2-(trifluoromethyl)piperazin-1-yl)prop-2-en-1-one]
 |  |  |  | 6630 nM | 1820 nM | 54.6 nM | 18.1 nM | C=CC(=O)N1CCN(c2ccc3ncnc(Nc4ccc(Oc5cc(F)c6c(c5)ncn6C)c(C)c4)c3n2)C[C@@H]1C1CC1 (racemic) [Example 278]
 |  |  |  | 436 nM | 78.3 nM | 45.6 nM | 9.4 nM | C=CC(=O)N1C[C@@H]2CC[C@H]1CN2c1ccc2ncnc(Nc3ccc(Oc4cnc5c(c4)ncn5C)c(C)c3F)c2n1 [Example 320]
2950 nM | 1850 nM | 81.3 nM | 17.8 nM |  |  |  |  | C=CC(=O)N1CCN(c2ccc3ncnc(Nc4ccc(Oc5ccn6ncnc6c5)c(C)c4F)c3n2)C[C@@H]1C [Example 88, (S)-1-(4-(4-((4-([1,2,4]triazolo[1,5-a]pyridin-7-yloxy)-2-fluoro-3-methylphenyl)amino)pyrido[3,2-d]pyrimidin-6-yl)-2-methylpiperazin-1-yl)prop-2-en-1-one]
 |  |  |  | 174 nM | 115 nM | 9.4 nM | 5.1 nM | C=CC(=O)N1CCN(c2ccc3ncnc(Nc4cc(Cl)c(Oc5ccn6ncnc6c5)cc4F)c3n2)C[C@H]1COC [Example 345]
 |  |  |  | 4550 nM | 1380 nM | 28.2 nM | 33.6 nM | C=CC(=O)N1CCN(c2ccc3ncnc(Nc4ccc(Oc5ccn6ncnc6c5)c(C)c4F)c3n2)C[C@H]1C1CC1 [Example 283]
3170 nM | 3780 nM | 41.5 nM | 34 nM |  |  |  |  | C=CC(=O)N1CC[C@H]2C[C@@H](c3ccc4ncnc(Nc5ccc(Oc6ccc7c(c6)ncn7C)c(C)c5F)c4n3)C[C@H]21 (racemic) [Example 133, rac-1-((3aR,5R,6aR)-5-(4-((2-fluoro-3-methyl-4-((1-methyl-1H-benzo[d]imidazol-5-yl)oxy)phenyl)amino)pyrido[3,2-d]pyrimidin-6-yl)hexahydrocyclopenta[b]pyrrol-1(2H)-yl)prop-2-en-1-one]
 |  |  |  | ≥ 10000 nM | ≥ 5000 nM | 711 nM | 253 nM | C=CC(=O)N1CC[C@@H]2C[C@H]1CN2c1ccc2ncnc(Nc3cc(Cl)c(Oc4cnc5c(c4)ncn5C)cc3F)c2n1 [Example 456]
265 nM | 1790 nM | 4 nM | 38.3 nM |  |  |  |  | C=CC(=O)N1CCCN(c2nc3c(Nc4ccc(Oc5ccn6ncnc6c5)c(Cl)c4F)ncnc3cc2OC)CC1 [Example 153, 1-(4-(4-((4-([1,2,4]triazolo[1,5-a]pyridin-7-yloxy)-3-chloro-2-fluorophenyl)amino)-7-methoxypyrido[3,2-d]pyrimidin-6-yl)-1,4-diazepan-1-yl)prop-2-en-1-one]
736 nM | 270 nM | 23.8 nM | 7.9 nM |  |  |  |  | C=CC(=O)N1CC[C@H](c2ccc3ncnc(Nc4ccc(Oc5ccn6ncnc6c5)c(C)c4F)c3n2)CC12CC2 (single isomer, unassigned) [Example 174]
≥ 10000 nM | ≥ 5000 nM | 60.4 nM | 9.4 nM |  |  |  |  | C=CC(=O)N1C[C@H]2C[C@@H]1CN(c1ccc3ncnc(Nc4cc(C)c(Oc5ccc6c(c5)ncn6C)cc4F)c3n1)C2 [Example 119, 1-((1S,5R)-3-(4-((2-fluoro-5-methyl-4-((1-methyl-1H-benzo[d]imidazol-5-yl)oxy)phenyl)amino)pyrido[3,2-d]pyrimidin-6-yl)-3,6-diazabicyclo[3.2.1]octan-6-yl)prop-2-en-1-one]
 |  |  |  | 584 nM | 339 nM | 15 nM | 21 nM | C=CC(=O)N1CC[C@H]2C[C@H](c3ccc4ncnc(Nc5ccc(Oc6ccn7ncnc7c6)c(C)c5F)c4n3)C[C@H]21 [Example 382]
 |  |  |  | 841 nM | 372 nM | 44.6 nM | 9.4 nM | C=CC(=O)N1CCC12CN(c1ccc3ncnc(Nc4cc(Cl)c(Oc5ccn6ncnc6c5)cc4F)c3n1)C2 [Example 343]
 |  |  |  | ≥ 10000 nM | ≥ 5000 nM | 10000 nM | 16.1 nM | C=CC(=O)N1CCN(c2ccc3ncnc(Nc4cc(Cl)c(Oc5ccn6ncnc6c5)cc4F)c3n2)C[C@H]1C(C)(C)C [Example 309]
≥ 10000 nM | ≥ 5000 nM | 104 nM | 42.6 nM |  |  |  |  | C=CC(=O)N1CCN(c2ccc3ncnc(Nc4cc(C)c(Oc5ccn6ncnc6c5)cc4F)c3n2)CC1 [Example 79, 1-(4-(4-((4-([1,2,4]triazolo[1,5-a]pyridin-7-yloxy)-2-fluoro-5-methylphenyl)amino)pyrido[3,2-d]pyrimidin-6-yl)piperazin-1-yl)prop-2-en-1-one]
 |  |  |  | 2210 nM | 1250 nM | 68.1 nM | 30.2 nM | C=CC(=O)N1C[C@@H]2C[C@H](c3ccc4ncnc(Nc5cc(C)c(Oc6ccn7ncnc7c6)cc5F)c4n3)C[C@H]1C2 [Example 390]
≥ 10000 nM | ≥ 5000 nM | 128 nM | 315 nM |  |  |  |  | C=C(F)C(=O)N1CCN(c2ccc3ncnc(Nc4ccc(Oc5ccn6ncnc6c5)c(C)c4F)c3n2)CC1 [Example 185, 1-(4-(4-((4-([1,2,4]triazolo[1,5-a]pyridin-7-yloxy)-2-fluoro-3-methylphenyl)amino)pyrido[3,2-d]pyrimidin-6-yl)piperazin-1-yl)-2-fluoroprop-2-en-1-one]
 |  |  |  | 5600 nM | ≥ 5000 nM | 119 nM | 33.6 nM | C=CC(=O)N1C[C@H]2C[C@@H]1[C@H](c1ccc3ncnc(Nc4ccc(Oc5cnc6c(c5)ncn6C)c(C)c4F)c3n1)C2 [Example 418]
 |  |  |  | 2250 nM | 2550 nM | 94.8 nM | 51.1 nM | CCC(=O)N1CC([C@H](C)c2ccc3ncnc(Nc4ccc(Oc5ccn6ncnc6c5)c(C)c4F)c3n2)C1 (racemic) [Example 301]
2780 nM | ≥ 5000 nM | 16.2 nM | 83.5 nM |  |  |  |  | C=CC(=O)N1C[C@H]2C[C@H](c3ccc4ncnc(Nc5ccc(Oc6ccn7ncnc7c6)c(C)c5F)c4n3)C[C@H]2C1 [Example 200, 1-((3aR,5s,6aS)-5-(4-((4-([1,2,4]triazolo[1,5-a]pyridin-7-yloxy)-2-fluoro-3-methylphenyl)amino)pyrido[3,2-d]pyrimidin-6-yl)hexahydrocyclopenta[c]pyrrol-2(1H)-yl)prop-2-en-1-one]
110 nM | 215 nM | 20.3 nM | 19.6 nM |  |  |  |  | C=CC(=O)N1CCC(Oc2nc3c(Nc4ccc(Oc5ccc6cn(C)nc6c5)c(Cl)c4F)ncnc3cc2OC)CC1 [Example 156, 1-(4-((4-((3-chloro-2-fluoro-4-((2-methyl-2H-indazol-6-yl)oxy)phenyl)amino)-7-methoxypyrido[3,2-d]pyrimidin-6-yl)oxy)piperidin-1-yl)prop-2-en-1-one]
5840 nM | ≥ 5000 nM | 19 nM | 35.2 nM |  |  |  |  | C=CC(=O)N1CCCN(c2ccc3ncnc(Nc4ccc(Oc5ccn6ncnc6c5)c(Cl)c4)c3n2)CC1 [Example 99, 1-(4-(4-((4-([1,2,4]triazolo[1,5-a]pyridin-7-yloxy)-3-chlorophenyl)amino)pyrido[3,2-d]pyrimidin-6-yl)-1,4-diazepan-1-yl)prop-2-en-1-one]
 |  |  |  | ≥ 10000 nM | ≥ 5000 nM | 127 nM | 556 nM | C=C(C)C(=O)N1CCN(c2ccc3ncnc(Nc4ccc(Oc5ccn6ncnc6c5)c(C)c4F)c3n2)CC1 [Example 364]
 |  |  |  | 4210 nM | ≥ 5000 nM | 29.2 nM | 36.5 nM | C=CC(=O)N1C[C@@H]2C[C@H]1CC[C@@H]2c1ccc2ncnc(Nc3ccc(Oc4ccc5c(c4)ncn5C)c(C)c3F)c2n1 [Example 379]
 |  |  |  | 2330 nM | ≥ 5000 nM | 50.5 nM | 21.2 nM | C=CC(=O)N1CCN(c2ccc3ncnc(Nc4ccc(Oc5ccn6ncnc6c5)c(Cl)c4F)c3n2)C[C@@H]1C(C)C [Example 293]

SMILES | IC50 (EGFR; EGFR enzyme) | IC50 (EGFR wild type (EGFR WT); [2]) | IC50 (ErbB2 WT; ErbB2 WT enzyme) | IC50 ([1]; ErbB2 YVMA phosphorylation) | IC50 (EGFR; EGFR enzyme assay) | IC50 (EGFR wild type (EGFR WT); [3]) | IC50 (ErbB2 WT; ErbB2 WT enzyme assay) | IC50 [1, 4]
C=CC(=O)N1C2CCC1CN(c1ccc3ncnc(Nc4ccc(Oc5ccc6c(c5)ncn6C)c(C)c4F)c3n1)C2 [Example 431] |  |  |  |  | 712 nM | 393 nM | 44.9 nM | 13.1 nM
